Test results published in US9023653B2, “Method of labeling sulfenic acid-containing proteins and peptides” (Wake Forest University Health Sciences, priority 2011, dated 2015).

Experiments:
[1] = cited from earlier work
[2] = biological target: C165S AhpC-SOH (Salmonella typhimurium, UniProt P0A251, C166S); assay: Labeling of C165S AhpC-SOH monitored by ESI-TOF MS; type: biochemical, bacteria
Procedure: The C165S AhpC was reduced in 10 mM DTT at room temperature for […] and the DTT was then removed by passing the protein solution through a Bio-Gel spin column equilibrated with ddH2O. The protein concentration was measured based on absorbance at 280 nm using the extinction coefficient 24,300 (M^−1 cm^−1). Typically, 200-400 μM C165S AhpC protein was oxidized to —SOH by incubating with 2 equivalents H2O2 for […] at r.t. with mixing. The excess H2O2 was removed using Bio-Gel spin columns equilibrated with ddH2O.
The C165S AhpC-SOH protein generated as described above was diluted to 50 μM in 50 mM Bis-tris-citric acid buffer (pH 7.4) containing 5 mM (final concentration) of reagent 1. After 3 h incubation with mixing, 30 μL aliquot of reaction mixture was passed through a Bio-Gel column equilibrated with 0.1% formic acid for ESI-TOF MS analysis. […] The covalent C165S AhpC-1 adduct was incubated with 50 mM-1 M hydroxylamine (stock 1N hydroxylamine, pH 8.0-8.5, adjusted by adding 2 N NaOH or 1 N ammonium bicarbonate) for 1 h at 37° C. before passing through the Bio-Gel column for ESI-TOF MS analysis.
The C165S AhpC-SOH protein was immediately aliquot to appropriate buffers: 50 mM Bis-tris-citric acid pH 7.4, 8.5, and 9.5, and 25 mM critic acid-Na2HPO4 buffers pH 5.5, and 6.5. Final concentrations of 50 μM protein and 5 mM labeling reagents (dimedone or 2) were used for all reactions. Dimedone stock was made in 0.5 M Bis-tris and DMSO (v:v=1:1) to pre-buffer its acidity around 6.5 before adding it to the reaction buffers. Final DMSO concentration during labeling was 0.5%. At the end of the incubation time (4 h for data in FIG. 1—pH 7.4 and 8.5; 90 min for data in FIG. S5A—pH 5.5-9.5), 30 μl, reaction mixture at each pH was passed through a Bio-Gel spin column and analyzed by ESI-TOF MS. Data were fit using SigmaPlot 11.0 and the user defined equation below to obtain the pKa: […]
The C165S AhpC-SOH was incubated with increasing concentrations of 2 (0.2, 0.5, 1, 5, and 10 mM) for 2 h in 50 mM Bis-tris-citric acid (pH 7.4) at r.t. The reaction mixture (30 μL) was passed through a Bio-Gel spin column and analyzed by ESI-TOF MS. Data were fit to a hyperbolic equation to determine K0.5 using SigmaPlot 11.0.
C165S AhpC-SOH protein was first labeled by 2 at pH 9.5 for 1 h and passed successively through three Bio-Gel spin columns equilibrated with PBS to remove the unreacted 2. Near 100% labeling of AhpC was configured by ESI-TOF MS. The C165S AhpC-2 adduct concentration was measured at 280 nm using the extinction coefficient 24,300 (M^−1 cm^−1) and then diluted in PBS to a final concentration of 50 μM. Click reaction was conducted by adding the following reagents in order: biotin-OEG11-azide (1 mM, final, from 50 mM stock in DMSO), TCEP (2 mM, final, from 100 mM stock freshly made in H2O), TBTA (0.1 mM, final, from 1.7 mM stock made in 1:4 DMSO/t-butanol) and CuSO4 (1 mM, final, from 50 mM stock in H2O). The mixture was incubated at r.t. for 2 h and then 30 μL of reaction mixture was passed through a Bio-Gel column equilibrated with 0.1% formic acid for ESI-TOF MS analysis. The biotin moiety was removed by hydroxylamine treatment as described above and the reaction products were analyzed by ESI-TOF MS.
(§1) ESI-TOF-MS analysis was performed on Agilent MSD TOF system in positive ion mode with the following settings: capillary voltage (VCap) 3500 V, nebulizer gas 30 psig, drying gas 5.0 L min^−1; fragmentor 140 V; gas temperature 325° C. The samples were injected at a flow rate of 20 μL min^−1, using a syringe pump (KD Scientific). The averaged MS spectra were deconvoluted using the Agilent MassHunter Workstation Software v B.01.03.

[3] = system: C165S AhpC-SH, C165S AhpC-SO2H and —SO3H, WT AhpC-S—S-AhpC; assay: Control experiments using AhpC-SH, AhpC-SO2/3H and WT AhpC proteins (ESI-TOF MS); type: biochemical, bacteria; conditions: 5 mM, pH 7.4, 1.5 h at r.t.
Procedure: (§2) Reduced form of C165S AhpC(C165S AhpC-SH), hyperoxidized protein (C165S AhpC-SO2H and —SO3H) and WT AhpC (disulfide crosslinked dimer, […]) were incubated with 1 (5 mM) for 1.5 h at r.t., pass through the Bio-Gel spin column and analyzed by ESI-TOF MS. C165S AhpC-SO2H and —SO3H were generated by incubating C165S AhpC-SH (250 μM) in ddH2O with 20 equivalents H2O2 for 1 h at r.t. with mixing. The excess H2O2 was removed using Bio-Gel spin columns and protein concentration was determined based on absorbance at 280 nm using the extinction coefficient 24,300 (M^−1 cm^−1).
as §1

[4] = system: SCC-61 cells; assay: MTT assay (cell viability); type: cell-based; conditions: 1 h incubation, 1-20 mM
Procedure: MTT (3-(4,5-dimethylthiazol-2-yl)-2,5-diphenyltetrazolium bromide) assay was used to test the SCC-61 cell viability when incubated with dimedone or 2 for 1 h. SCC-61 cells were seeded in a 96-well plate at a density of 5,000 per well in 50 μL, and incubated overnight. Dimedone or 2 (50 μL) was added to each well at final concentrations of 1, 2.5, 5, 10, and 20 mM. Plates were then incubated for 1 h at 37° C. in a humidified atmosphere with 5% CO2. MTT labeling reagent (Roche; 5 mg/ml in PBS, 10 μL) was added to each well, and the plate was incubated for 4 h at 37° C. The solubilization solution (100 μL) was then added to each well for overnight incubation at 37° C. The following day, absorbance was measured at 570 nm and all experiments were repeated twice. The resulting curves were fitted using SigmaPlot software to a sigmoidal dose-response equation to determine the IC50. The IC50 represents the concentration of chemical probe causing a 50% reduction in cell viability.

[5] = system: SCC-61 cells; assay: Cell membrane permeability assay; type: cell-based; conditions: 10 mM, 2 h
Procedure: SCC-61 cells were cultured to 95% confluence in complete media (DMEM/F12 High Glucose (Invitrogen) supplemented with 10% fetal bovine serum (FBS, Invitrogen), 1% penicillin & streptomycin (Invitrogen)). Cells were washed with HBSS buffer (pH 7.4) three times and incubated with 10 mM probe 2 in HBSS at r.t. for 2 h. Cells incubated in HBSS without 2 were included as controls. After the incubation, cells were carefully washed by HBSS three times to remove excess 2 and lysed with the lysis buffer described above except in the absence of 2. Lysates were incubated at r.t. for additional 2 h to ensure complete labeling prior to the addition of cold MeOH/CHCl3 for protein precipitation. The denatured proteins were resolubilized in 1% SDS (in PBS) for the click reaction, which was then followed by Western-blot analysis as described above.

[6] = system: —SOH proteins in NIH 3T3 cell lysates; assay: Labeling of —SOH proteins in NIH 3T3 cell lysates (click biotinylation, Western blot); type: biochemical; conditions: for labeling of lysate proteins (streptavidin-HRP signal): 5 mM
Procedure: NIH 3T3 cells were cultured to 95% confluence in complete media (DMEM High Glucose (Invitrogen) supplemented with 10% fetal bovine serum (FBS, Invitrogen) and 1% penicillin & streptomycin (Invitrogen)). Cells were washed with PBS three times and lysed using 5 mM of 2 in lysis buffer (50 mM NaCl, 1 mM EDTA, 1 mM EGTA, 10% Glycerol, 1% Triton X-100, 25 mM NaF, 10 μM ZnCl2, supplemented with protease and phosphatase inhibitor tablets (Roche)). Lysis buffer was made in 50 mM citric acid/Na2HPO4 when labeling was carried out at pH 5.5 and 7.4, and in 50 mM NaHCO3/Na2CO3 for labeling at pH 9.5. Lysates were incubated for 2 h at r.t. and then quenched by adding cold MeOH/CHCl3^[1] to remove excess 2.
Cells were lysed using lysis buffer (pH 7.4) supplemented with 2 (5 mM) as described above. The labeling was allowed to proceed at r.t. for 2 h before quenching with MeOH/CHCl3. Protein pellets precipitated from 200 μL lysate were resuspended in 50 μL, 1% SDS in PBS, sonicated for 30 s and finally heated at 95° C. for 5 mins. Protein concentration was measured using Bio-Rad protein assay (SDS concentration in the assay 0.001%) and normalized to the same concentration. Click reaction was performed using the solubilized lysate proteins according to the procedures described above. After 2 h incubation, 15 μL reaction aliquot from each sample was mixed with 5 μL sample buffer (with β-mecaptoethanol) for SDS-PAGE and Western blot analysis. Biotinylated proteins were probed using Streptavidin-HRP. In control experiments, lysates were pre-reduced with 10 mM TCEP at pH 7.4 for 1 h at r.t. before the addition of 2; lysates prepared in the absence of 2 with or without click reaction were also included in the SDS-PAGE and Western blot analysis.

[7] = system: NIH 3T3 cells; assay: DCF assay (intracellular ROS level); type: cell-based; conditions: 10 mM, 2 h
Procedure: NIH 3T3 cells cultured in 60-mm dishes were serum starved overnight and incubated with 10 mM dimedone, reagent 2 or 1% DMSO individually for 2 h. 5-(and-6)-carboxy-2′,7′-dichloro-dihydrofluorescein diacetate (carboxy-H2DCFDA) (100 μM; Invitrogen) was added to cells at room temperature after the incubation. The cells were then immediately washed twice with PBS and visualized with Arcturus PixCell II laser capture microscope using 20× objective.

[8] = biological target: C165S AhpC-SH, C165S AhpC-SO2H and —SO3H, WT AhpC-S—S-AhpC (Salmonella typhimurium, UniProt P0A251, C166S); assay: Control experiments using AhpC-SH, AhpC-SO2/3H and WT AhpC proteins (ESI-TOF MS); type: biochemical, bacteria; conditions: pH 9.5
Procedure: as §2, §1

Sequence of C165S AhpC-SOH (P0A251 whole entry C166S): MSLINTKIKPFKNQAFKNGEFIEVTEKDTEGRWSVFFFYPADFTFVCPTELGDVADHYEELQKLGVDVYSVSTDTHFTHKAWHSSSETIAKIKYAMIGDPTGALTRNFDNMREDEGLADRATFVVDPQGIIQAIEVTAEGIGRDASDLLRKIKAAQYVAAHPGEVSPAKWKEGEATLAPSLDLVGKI
Sequence of C165S AhpC-SH, C165S AhpC-SO2H and —SO3H, WT AhpC-S—S-AhpC (Salmonella typhimurium, UniProt P0A251, C166S) (P0A251 2-187 C166S): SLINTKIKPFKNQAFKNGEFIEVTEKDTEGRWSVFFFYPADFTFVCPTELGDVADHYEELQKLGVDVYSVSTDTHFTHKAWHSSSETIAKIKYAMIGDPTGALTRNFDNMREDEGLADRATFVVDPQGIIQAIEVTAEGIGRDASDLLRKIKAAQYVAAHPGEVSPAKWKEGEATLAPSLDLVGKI

| SMILES | enol content ([1]; in aqueous solution) | labeling of C165S AhpC-SOH (adduct product peak) ([2]; AhpC 50 uM, reagent 5 mM, pH 7.4, 3 h) | reaction with —SH, —S—S—, —SO2/3H, or other amino acid residues [3] | effect on cell viability [4] | cell permeability (biotin signal after click reaction) [5] | labeling of lysate proteins (streptavidin-HRP signal) ([6]; pH 5.5) | labeling of lysate proteins (streptavidin-HRP signal) ([6]; pH 7.4 and 9.5) | selectivity of labeling in cell lysates ([6]; pH 7.4, lysates pre-reduced with TCEP as control) | reactivity with AhpC-SOH as pH increases ([2]; higher pH (up to 9.5)) | reactivity with AhpC-SOH at low pH ([2]; pH 5.5 and 6.5) | K0.5 (hyperbolic fit of labeling vs probe concentration) ([2]; pH 7.4, 2 h, r.t., 0.2-10 mM probe) | labeling of —SOH compared with dimedone ([2]; pH 7.4 and 8.5, 50 μM protein, 5 mM reagent, 4 h) | intracellular ROS level (DCF) [7] | adduct formation with reduced form of C165S AhpC [8] | IC50 ([4]; read-out: IC50 (50% reduction in cell viability)) | keto-enol tautomerism state ([1]; reported) | pKa for the carbon between keto groups ([1]; reported) | reactivity at mildly acidic or basic conditions compared to pH 7.4 ([2]; data not shown) |
| --- | --- | --- | --- | --- | --- | --- | --- | --- | --- | --- | --- | --- | --- | --- | --- | --- | --- | --- |
| COC(=O)CC(C)=O [compound 1, methyl acetoacetate] | 7.4% | labeling of C165S AhpC-SOH | did not react |  |  |  |  |  |  |  |  |  |  |  |  |  |  |  |
| C#CCCOC(=O)CC(C)=O [compound 2, but-3-yn-1-yl 3-oxobutanoate] |  |  |  | did not significantly affect cell viability | cell permeable | no visible signal | Nearly equal labeling | selective towards —SOH | becomes highly reactive | reacts very slowly | 3.0 ± 0.3 mM | Increased labeling | did not alter the basal level of ROS | no adduct formation |  |  |  |  |
| CC1(C)CC(=O)CC(=O)C1 [dimedone, 5,5-dimethyl-1,3-cyclohexanedione, reference compound] |  |  |  |  |  |  |  |  |  |  |  |  | significant increase in ROS |  | 5.3 ± 0.2 mM | exclusively in the enol state | 4.3 | slight increase in reactivity |
